Here are results for five compounds from patent US20250241894A1, “TREATMENT OF MENTAL DISORDERS” (GH RESEARCH IRELAND LIMITED, priority 2022, published 2025).

Data set [1] concerns human hepatocytes. The data set is described as follows: Metabolism identification study in human hepatocytes. The conditions noted are these: for Relative Proportion of compounds identified: 5-MeO-DMT free base 10 μM, up to 120 minutes. As for the experimental part: For incubations with cryopreserved hepatocytes, the 2 mM stock solution was diluted with Leibovitz L-15 medium to a concentration of 20 μM or 2 μM. An aliquot (250 μL) of the 20 μM and 2 μM test substance formulations was added to each hepatocyte incubation sample (250 μL), as appropriate, so that the final test substance concentration in the incubations was 10 μM or 1 μM, respectively, and incubations contained less than 1% (v/v) solvent.
Incubations were performed at ca. 37° C. in a shaking water bath (total incubation volume 0.5 mL). For 1 μM, incubations were terminated after 0, 5, 10, 20, 30, 60 and 120 minutes, by the addition of ice-cold acetonitrile (0.5 mL).
The samples were vortex mixed and centrifuged at ca 13,000 rpm for 10 minutes at room temperature. Following centrifugation, the protein-free supernatants were removed for analysis.
Blank control incubations were carried out with Leibovitz L-15 medium in place of the test substance. No cells control samples were performed with Leibovitz L-15 medium in place of hepatocytes. Aliquots of the blank control samples were taken at 120 minutes, while no cells control samples were taken at 0, 30 and 120 for 1 μM incubations and at 0 and 120 minutes for 10 μM incubations.
All 1 μM incubations were performed in duplicate, while all 10 μM incubations were performed in singlet. All samples were stored at −80° C. (nominal) prior to analysis.
Prior to sample analysis a 100 μL aliquot of each sample was evaporated to near dryness under a steady stream of nitrogen at room temperature, and subsequently reconstituted in 50 μL of mobile phase A (0.1% formic acid in water). Each sample (0, 30 and 120-minute, 10 μM) was analysed using accurate mass LC-MS to determine relative levels of parent compound at each time-point, and determine the profile of metabolites formed. Appropriate blank and control samples were also analysed. The 10 and 60-minute, 10 μM incubation samples were not analysed and were stored at −80° C. (nominal).
Data were interrogated for the presence of metabolites by comparison of retention times with the test substance reference standard and based on the accurate masses of potential metabolites using screening software (UNIFI version 1.9.4), and user defined search parameters. To confirm a suspected metabolite, the measured accurate mass of the peak detected in the sample used for structural elucidation had to be within 5 ppm of the theoretical mass in order to confirm the molecular formula.

A further data set relates to human plasma protein. The data set is described as follows: Binding of 5-MIAA to human plasma protein. Type of data set: in vitro ADME. As for the experimental part:
Binding to human plasma protein was determined. Reported are the unbound fraction (fu) for three replicates as well as the mean unbound fraction, the standard deviation and the mean % recovery (Table 8).

For data set [2], the system named is human hepatocytes. The data set is described as follows: Metabolic stability in Hμrel human hepatocyte co-culture assay.
The next data set can be described thus: Water solubility. In kind it is physicochemical.
For data set [3] the following is noted: rat; cited from earlier work.
Data set [4] in a line: Pharmacokinetics of 5-MeO-DMT and bufotenine after a single inhaled dose. In kind it is in vivo, human. Particulars: 15 minutes after administration of 5-MeO-DMT. As for the experimental part:
Blood samples were obtained at 1; 2; 4; 7; 10; 15; 20; 30; 45 min and 1; 1.5; 2; 3; 4 hours after administration.
PK parameters were generated by algebraic analysis of the concentration versus time plots for each individual. The analysis was carried out using the software Phoenix WinNonlin 6.3.

On to 5-Methoxyindole acetic acid [5-MIAA], for which the “Presence in subsequent assays” value in the data set with human hepatocytes [1] was “predominant metabolite”. In the data set with human plasma protein, the “Plasma binding (mean fraction unbound)” value was around 50%. In the data set with human plasma protein (assuming glomerular filtration rate 90-120 ml/min), the “Time until removed from circulation for urinary excretion” value lay in the range of 1 to 2 h. Further, the Remaining abundance in the data set on human hepatocytes [2] (after 72 h, hepatocytes, 1 and 10 μM) is on record as 75-82%. The Metabolic turnover result with human hepatocytes [2] (hepatocytes) is “low metabolic turnover”. Moreover, in the data set with human hepatocytes [2] (stromal cells), the “Disappearance with stromal cell controls” value was “no disappearance”.

With `COc1ccc2[nH]cc(CC[N+](C)(C)[O-])c2c1` [5-MeO-DMT-N-oxide], the “Relative Proportion of compounds identified” value (“Relative Proportion” below) in the data set on human hepatocytes [1] was found to be 1%. In addition, the Water solubility entry in the data set “Water solubility” is “water soluble”. Moreover, the Excretion entry in data set [3] was “rapid excretion”.

Consider `COc1ccc2[nH]cc(CCO)c2c1` [5-methoxytryptophol, 5-Methoxyindole-3-ethanol], for which, in the data set with human hepatocytes [1], the “Relative Proportion” value worked out at 25% and the “Presence in subsequent assays” value is reported as “failed to detect”. In addition, in the data set on human hepatocytes [2] (hepatocytes), the Metabolic turnover entry is recorded as “high metabolic turnover” and the “Time to complete disappearance” value turned out to be 24 h.

In the case of `CN(C)CCc1c[nH]c2ccc(O[C@@H]3O[C@H](C(=O)O)[C@@H](O)[C@H](O)[C@H]3O)cc12` [Bufotenine glucuronide], in the data set with human hepatocytes [1], the “Detection in the hepatocyte assay” value is “not detected”.

In the case of `CN(C)CCc1c[nH]c2ccc(O)cc12` [bufotenine, Bufotenine], the “Detection in human serum” value in data set [4] is given as “In no case is it detected”. In addition, the “Relative Proportion” value with human hepatocytes [1] stood at 5%.
